# Results published in article PMC11062899, “De novo development of small cyclic peptides that are orally bioavailable” (Nature Chemical Biology, 2023).
# Where “and” joins values, the source holds several entries; their conditions need not be identical. Equal values may be shown once. Read-outs that look alike come from different tables or passages of the source.
# Columns and labels:
# [1] = Metabolic stability in rat liver microsomes (RLMs); details: for microsomal CLint / half-life: rat
# rat α-thrombin = biological target: T1, rat α-thrombin (Rattus norvegicus, UniProt P18292); test: Protease inhibition, Ki for rat α-thrombin (fluorogenic substrate Z-Gly-Gly-Arg-AMC); assay type: biochemical; details: rat alpha thrombin; for Slope normalized to DMSO (proteolytic substrate cleavage over time): replicates R1-R3
# T1 construct: rat α-thrombin (Molecular Innovations) were used at final concentrations of 2 nM and 3 nM; purchased Molecular Innovations
# Summary of the method: (§1)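 Ki values come from Cheng–Prusoff correction of IC50, itself fitted by four-parameter logistic regression of activity versus a no-peptide control. Assays used 2 nM human or 3 nM rat thrombin, 50 μM Z-Gly-Gly-Arg-AMC, 30 min kinetic fluorescence at 25 °C.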
# [2] = Passive artificial membrane permeability (PAMPA)
# [3] = Peptide stability in simulated intestinal fluid (SIF); assay type: in vitro ADME, porcine; details: simulated gi fluid; 8 h, 37 °C, pH 6.8; read-out: Proteolytic stability: SIF (8 h) % remaining
# Summary of the method: (§2)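 Peptide from a 1 mM DMSO stock was added to fluid pre-warmed at 37 °C. SGF was pH 1.2 NaCl with porcine pepsin (0.32 g per 100 ml), and SIF was pH 6.8 potassium phosphate with porcine pancreatin (1 g per 100 ml). Supernatant peptide was quantified by LC–MS, with residual expressed as T1/T0.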
# porcine pancreatin = test: as above; assay type: in vitro ADME; details: after 8 h vs 0 h (TIC)
# Summary of the method: as §2
# human α-thrombin = human α-thrombin (Homo sapiens, UniProt P00734); test: Protease inhibition, Ki for human α-thrombin (fluorogenic substrate Z-Gly-Gly-Arg-AMC); assay type: biochemical; details: human alpha thrombin; for Slope normalized to DMSO (proteolytic substrate cleavage over time): replicates R1-R3
# Summary of the method: as §1
structure (smiles),measurement,setting,value
O=C1C[C@H]2CCCN2C(=O)[C@H](Cc2ccccc2)NC(=O)[C@@H](NC(=O)c2ccc(Cl)s2)CCSCc2cccc(n2)CSCCN1 [compound 33],"TIC value of compound, 0 min, R1","[1]; rat liver microsomes, 0 min, replicate R1",21264470
same,"TIC value of compound, 0 min, R3","[1]; rat liver microsomes, 0 min, replicate R3",18840495
same,"TIC value of compound, 5 min, R1","[1]; rat liver microsomes, 5 min, replicate R1",18437497
same,"TIC value of compound, 5 min, R3","[1]; rat liver microsomes, 5 min, replicate R3",18024716
same,"TIC value of compound, 15 min, R1","[1]; rat liver microsomes, 15 min, replicate R1",13918481
same,"TIC value of compound, 15 min, R3","[1]; rat liver microsomes, 15 min, replicate R3",11416589
same,"TIC value of compound, 30 min, R1","[1]; rat liver microsomes, 30 min, replicate R1",9967302
same,"TIC value of compound, 30 min, R3","[1]; rat liver microsomes, 30 min, replicate R3",7497114
same,"TIC value of compound, 60 min, R1","[1]; rat liver microsomes, 60 min, replicate R1",4659151
same,"TIC value of compound, 60 min, R3","[1]; rat liver microsomes, 60 min, replicate R3",3520876
same,microsomal CLint,"[1]; CL (ul/min/mg protein), R1, RLM CL, replicate R1, unrounded",52.1 µL/min/mg
same,microsomal CLint,"[1]; CL (ul/min/mg protein), R2, RLM CL, replicate R2, unrounded",71 µL/min/mg
same,microsomal CLint,"[1]; CL (ul/min/mg protein), R3, RLM CL, replicate R3, unrounded",58.8 µL/min/mg
same,half-life,"[1]; Half Life (min), R1, RLM metabolic stability, replicate R1",26.6 min
same,half-life,"[1]; Half Life (min), R2, RLM metabolic stability, replicate R2",19.5 min
same,half-life,"[1]; Half Life (min), R3, RLM metabolic stability, replicate R3",23.6 min
same,half-life,"[1]; microsomes, Metabolic stability: Half life T1/2 (min), RLMs, mean and SD, three measurements",23 ± 3 min
same,microsomal CLint,"[1]; microsomes, Metabolic stability: RLM CL (ul/min/mg), RLMs, mean and SD, three measurements",61 ± 8 µL/min/mg
same,microsomal CLint,"[1]; microsomes, RLM CL, Average, average of R1-R3",60.6 µL/min/mg
same,microsomal CLint,"[1]; microsomes, RLM CL, R1, RLM CL, replicate R1, summary block",52.1 µL/min/mg
same,microsomal CLint,"[1]; microsomes, RLM CL, R2, RLM CL, replicate R2, summary block",71 µL/min/mg
same,microsomal CLint,"[1]; microsomes, RLM CL, R3, RLM CL, replicate R3, summary block",58.8 µL/min/mg
same,Ki,"rat α-thrombin; average of R1-R3, read-out: Ki Average, rat alpha thrombin inhibition",48.7 nM
same,Slope normalized to DMSO (proteolytic substrate cleavage over time),rat α-thrombin; peptide 1.02E-03 uM,97.0 and 99.6 and 95.3
same,Slope normalized to DMSO (proteolytic substrate cleavage over time),rat α-thrombin; peptide 1.04E+00 uM,14.5 and 15.6 and 13.7
same,Slope normalized to DMSO (proteolytic substrate cleavage over time),rat α-thrombin; peptide 1.27E-04 uM,100.8 and 101.2 and 98.8
same,Slope normalized to DMSO (proteolytic substrate cleavage over time),rat α-thrombin; peptide 1.30E-01 uM,42.9 and 43.5 and 41.1
same,Slope normalized to DMSO (proteolytic substrate cleavage over time),rat α-thrombin; peptide 1.59E-05 uM,100.2 and 103.5 and 96.9
same,Slope normalized to DMSO (proteolytic substrate cleavage over time),rat α-thrombin; peptide 1.63E-02 uM,81.2 and 82.0 and 78.1
same,Slope normalized to DMSO (proteolytic substrate cleavage over time),rat α-thrombin; peptide 1.67E+01 uM,4.8 and 6.2 and 3.6
same,Slope normalized to DMSO (proteolytic substrate cleavage over time),rat α-thrombin; peptide 2.03E-03 uM,97.0 and 98.5 and 91.0
same,Slope normalized to DMSO (proteolytic substrate cleavage over time),rat α-thrombin; peptide 2.08E+00 uM,9.6 and 11.2 and 10.1
same,Slope normalized to DMSO (proteolytic substrate cleavage over time),rat α-thrombin; peptide 2.54E-04 uM,101.1 and 99.8 and 96.9
same,Slope normalized to DMSO (proteolytic substrate cleavage over time),rat α-thrombin; peptide 2.60E-01 uM,27.4 and 28.5 and 28.0
same,Slope normalized to DMSO (proteolytic substrate cleavage over time),rat α-thrombin; peptide 3.18E-05 uM,101.5 and 104.3 and 97.0
same,Slope normalized to DMSO (proteolytic substrate cleavage over time),rat α-thrombin; peptide 3.26E-02 uM,78.3 and 77.8 and 74.1
same,Slope normalized to DMSO (proteolytic substrate cleavage over time),rat α-thrombin; peptide 3.33E+01 uM,5.1 and 5.9 and 3.3
same,Slope normalized to DMSO (proteolytic substrate cleavage over time),rat α-thrombin; peptide 4.07E-03 uM,94.4 and 95.7 and 92.3
same,Slope normalized to DMSO (proteolytic substrate cleavage over time),rat α-thrombin; peptide 4.17E+00 uM,6.3 and 7.7 and 3.6
same,Slope normalized to DMSO (proteolytic substrate cleavage over time),rat α-thrombin; peptide 5.09E-04 uM,98.0 and 98.3 and 95.3
same,Slope normalized to DMSO (proteolytic substrate cleavage over time),rat α-thrombin; peptide 5.21E-01 uM,18.6 and 18.9 and 16.5
same,Slope normalized to DMSO (proteolytic substrate cleavage over time),rat α-thrombin; peptide 6.36E-05 uM,100.6 and 99.7 and 96.2
same,Slope normalized to DMSO (proteolytic substrate cleavage over time),rat α-thrombin; peptide 6.51E-02 uM,60.0 and 58.6 and 62.0
same,Slope normalized to DMSO (proteolytic substrate cleavage over time),rat α-thrombin; peptide 6.67E+01 uM,5.5 and 6.9 and 1.9
same,Slope normalized to DMSO (proteolytic substrate cleavage over time),rat α-thrombin; peptide 7.95E-06 uM,105.3 and 103.4 and 99.9
same,Slope normalized to DMSO (proteolytic substrate cleavage over time),rat α-thrombin; peptide 8.14E-03 uM,89.5 and 90.6 and 84.9
same,Slope normalized to DMSO (proteolytic substrate cleavage over time),rat α-thrombin; peptide 8.33E+00 uM,6.7 and 6.6 and 4.7
same,IC50,"rat α-thrombin; single replicates R1-R3, read-out: IC50, rat alpha thrombin inhibition",86.2 nM and 82.3 nM and 95.4 nM
same,Ki,"rat α-thrombin; single replicates R1-R3, read-out: Ki, rat alpha thrombin inhibition",47.7 nM (2×) and 45.6 nM (2×) and 52.8 nM (2×)
same,PAMPA permeability: % permeability,"[2]; 50 μM, 12–18 h, acceptor concentration relative to equilibrium",45 ± 10%
same,Papp at 50 μM,"[2]; PAMPA, pH 7.4",5.89 ×10⁻⁶ cm/s
same,Permeability% Average,"[2]; top well sample vs theoretical equilibrium sample (TIC), average of R1-R3",45.3%
same,Permeability%,"[2]; top well sample vs theoretical equilibrium sample (TIC), single replicates R1-R3",55.48% and 44.56% and 35.81%
same,remaining at 8 h,[3],69 ± 6%
same,"SIF stability, Residual peptide Average",porcine pancreatin; average of R1-R3,68.57
same,"SIF stability, Residual peptide",porcine pancreatin; single replicates R1-R3,74.90 and 62.29 and 68.52
same,Ki,"human α-thrombin; average of R1-R3, read-out: Ki Average, human alpha thrombin inhibition",96.6 nM
same,Slope normalized to DMSO (proteolytic substrate cleavage over time),human α-thrombin; peptide 1.02E-03 uM,103.0 and 105.2 and 102.2
same,Slope normalized to DMSO (proteolytic substrate cleavage over time),human α-thrombin; peptide 1.04E+00 uM,21.7 and 19.1 and 21.5
same,Slope normalized to DMSO (proteolytic substrate cleavage over time),human α-thrombin; peptide 1.27E-04 uM,106.0 and 98.8 and 103.2
same,Slope normalized to DMSO (proteolytic substrate cleavage over time),human α-thrombin; peptide 1.30E-01 uM,57.8 and 50.1 and 54.9
same,Slope normalized to DMSO (proteolytic substrate cleavage over time),human α-thrombin; peptide 1.59E-05 uM,109.2 and 97.6 and 100.1
same,Slope normalized to DMSO (proteolytic substrate cleavage over time),human α-thrombin; peptide 1.63E-02 uM,89.4 and 85.3 and 86.8
same,Slope normalized to DMSO (proteolytic substrate cleavage over time),human α-thrombin; peptide 1.67E+01 uM,7.7 and 6.1 and 7.5
same,Slope normalized to DMSO (proteolytic substrate cleavage over time),human α-thrombin; peptide 2.03E-03 uM,102.9 and 97.6 and 97.7
same,Slope normalized to DMSO (proteolytic substrate cleavage over time),human α-thrombin; peptide 2.08E+00 uM,19.7 and 13.9 and 8.6
same,Slope normalized to DMSO (proteolytic substrate cleavage over time),human α-thrombin; peptide 2.54E-04 uM,113.7 and 102.5 and 100.7
same,Slope normalized to DMSO (proteolytic substrate cleavage over time),human α-thrombin; peptide 2.60E-01 uM,43.1 and 35.0 and 39.7
same,Slope normalized to DMSO (proteolytic substrate cleavage over time),human α-thrombin; peptide 3.18E-05 uM,105.3 and 102.8 and 93.4
same,Slope normalized to DMSO (proteolytic substrate cleavage over time),human α-thrombin; peptide 3.26E-02 uM,88.2 and 77.6 and 78.4
same,Slope normalized to DMSO (proteolytic substrate cleavage over time),human α-thrombin; peptide 3.33E+01 uM,6.8 and 6.6
same,Slope normalized to DMSO (proteolytic substrate cleavage over time),human α-thrombin; peptide 4.07E-03 uM,95.5 and 99.8 and 99.7
same,Slope normalized to DMSO (proteolytic substrate cleavage over time),human α-thrombin; peptide 4.17E+00 uM,12.3 and 14.8 and 9.6
same,Slope normalized to DMSO (proteolytic substrate cleavage over time),human α-thrombin; peptide 5.09E-04 uM,101.7 and 102.5 and 100.0
same,Slope normalized to DMSO (proteolytic substrate cleavage over time),human α-thrombin; peptide 5.21E-01 uM,26.3 and 24.6 and 23.6
same,Slope normalized to DMSO (proteolytic substrate cleavage over time),human α-thrombin; peptide 6.36E-05 uM,99.2 and 97.4 and 102.8
same,Slope normalized to DMSO (proteolytic substrate cleavage over time),human α-thrombin; peptide 6.51E-02 uM,70.8 and 64.0 and 70.3
same,Slope normalized to DMSO (proteolytic substrate cleavage over time),human α-thrombin; peptide 6.67E+01 uM,6.9 and 8.6 and 6.6
same,Slope normalized to DMSO (proteolytic substrate cleavage over time),human α-thrombin; peptide 7.95E-06 uM,102.4 and 98.2 and 102.1
same,Slope normalized to DMSO (proteolytic substrate cleavage over time),human α-thrombin; peptide 8.14E-03 uM,92.1 and 87.0 and 91.2
same,Slope normalized to DMSO (proteolytic substrate cleavage over time),human α-thrombin; peptide 8.33E+00 uM,12.3 and 13.7 and 5.0
same,IC50,"human α-thrombin; single replicates R1-R3, read-out: IC50, human alpha thrombin inhibition",139 nM and 101 nM and 135 nM
same,Ki,"human α-thrombin; single replicates R1-R3, read-out: Ki, human alpha thrombin inhibition",108 nM and 78 nM and 104 nM
